The target of series [1] is Jurkat cells expressing CXCR4 (Homo sapiens (Human), UniProt P61073). Kind of series: Chemokine (CXCL12-AF647) binding inhibition assay. The conditions noted are these: CXCL12-AF647 25 ng/mL, read-out: IC50 CXCL-12 binding Jurkat. The gist of the method: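 Cells in HBSS, 20 mM HEPES, 0.2% BSA, pH 7.4, preincubated 15 min at room temperature with compound, then 25 ng/mL CXCL12-AF647 for 30 min. After washing and paraformaldehyde fixation, bound ligand read by flow cytometry; percent inhibition calculated from MFI relative to unlabeled and ligand-only controls.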

Series [2] in a line: Rat pharmacokinetics and brain penetration (IV and PO). The format is in vivo. The conditions noted are these: male, SD, 3 mg/kg IV, 10 mg/kg PO; for Kp / Kp uu: brain and plasma; for Kp / Kp uu / clearance / bioavailability / half-life: Rat; for Kp: read-out: Kp (brain/plasma drug concentration ratio); for Kp uu: read-out: Kp, uu (unbound brain/unbound plasma drug concentration ratio); for clearance / bioavailability / half-life: plasma; for bioavailability: read-out: F % (oral bioavailability); for half-life: read-out: t½ (converted). As for the experimental part:
Example 29: Pharmacokinetics and Brain Penetration Experiment to Determine Brain and Plasma Concentrations of Compounds After IV Administration to Male CD1 Mice or Male SD Rat
The study design consisted of 2 groups (24 animals and 18 animals) and administrating the drug [IV: 3 mg/kg (1.5 mL/kg) via foot dorsal vein], [PO: 10 mg/kg (5 mL/kg) via oral gavage] and collecting samples at terminal bleeding for plasma, brain and CSF at 0.25, 0.5, 1, 4, 8 and 24 hr. The IV and PO dosing solutions were prepared in 50 mM citrate buffer (pH 4.0) at 2 mg/mL. The blood collection was performed as follows: the animal was restrained manually at the designated time points, approximately 150 μL of blood sample was collected via cardiac puncture vein into EDTA-2K tubes. The blood samples were maintained in wet ice first and centrifuged to obtain plasma (2000 g, 4° C., 5 min) within 15 minutes post sampling. The brain collection was performed as follows: a mid-line incision was made in the animal's scalp and the skin was retracted. Using small bone cutters and rongeurs, the skull overlying the brain was removed. The brain was removed using a spatula and rinsed with cold saline. The brain was placed in screw-top tubes and then stored under −70° C. until analysis. The CSF collection was performed as follows: the animal was euthanized under deep anesthesia with air bubble tail vein injection. The CSF was collected by direct puncture of butterfly needle into the cisterna magna, using the occipital bone and the wings of the atlas as landmarks. A piece of white paper was used as a background to monitor color change in the sample just above the needle during collection. Upon observation of color change, the PE tubing was quickly clamped off above the color change and cut just above the clamped site. The clear sample was drawn into the syringe.
Plasma Samples Preparation:
An aliquot of 30 μL sample was added with 100 MeCN containing 100 ng/mL IS (Dexamethasone). The mixture was vortexed for 10 min and centrifuged at 5800 rpm for 10 min. An aliquot of 40 μL supernatant was added with 40 μl H2O and the mixture was vortexed for 5 min. An aliquot of 2 μL supernatant was injected for LC-MS/MS analysis.
Brain Samples Preparation:
The sample was homogenized with 3 volumes (v/w) of PBS. An aliquot of 30 μL sample was added with 100 μL ACN containing 100 ng/mL IS (Dexamethasone). The mixture was vortexed for 10 min and centrifuged at 5800 rpm for 10 min. An aliquot of 40 μL supernatant was added with 40 μl H2O and the mixture was vortexed for 5 min. An aliquot of 2 μL supernatant was injected for LC-MS/MS analysis.
An aliquot of 10 μL sample was added with 10 μLMeOH/H2O (1/1) and […], ACN containing 200 ng/mL IS (Dexamethasone) 120 μL H2O. The mixture was vortexed for 5 min. An aliquot of 2 μL supernatant was injected for LC-MS/MS analysis.
The sample analysis was performed on UPLC-MS/MS-02 (Triple Quad 4000) under the following conditions: positive ion, ESI, MRM detection using dexamethasone as internal standard. HPLC conditions: mobile phase A: H2O-0.1% FA, mobile phase B: MeCN-0.1% FA on ACQUITY UPLC HSS T3 (2.1×50 mm, 1.8 μm) column at 60° C.

Series [3] in a line: Fraction of drug unbound to brain proteins, mouse. It counts as in vitro ADME. The following applies: read-out: Fu (b) %.
A short description of series [4]: Fraction of drug unbound to brain proteins, rat. It counts as in vitro ADME. The conditions noted are these: read-out: Fu (b).
Setting [5] is: Rat brain, read-out: AUClast (b).
The mark [6] stands for this setting: Rat plasma, read-out: AUClast (p).

Where two headings read alike, the source gives them in different places.

As a reminder, the IC50 is the concentration needed to halve the response being measured. Broadly, the bioavailability is dose-corrected exposure relative to a reference, in per cent.

Jurkat cells expressing CXCR4, sequence (P61073 whole entry): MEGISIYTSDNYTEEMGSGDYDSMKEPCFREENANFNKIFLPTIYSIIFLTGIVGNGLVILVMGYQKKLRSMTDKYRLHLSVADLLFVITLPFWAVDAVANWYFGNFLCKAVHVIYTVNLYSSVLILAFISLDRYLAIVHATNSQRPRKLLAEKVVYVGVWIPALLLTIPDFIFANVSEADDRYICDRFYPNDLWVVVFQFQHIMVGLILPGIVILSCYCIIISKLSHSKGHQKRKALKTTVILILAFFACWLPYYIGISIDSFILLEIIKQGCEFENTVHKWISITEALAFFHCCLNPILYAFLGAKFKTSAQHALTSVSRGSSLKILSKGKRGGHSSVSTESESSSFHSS

Regarding `CN1CCN(c2cccc3nc([C@H]4CCC[C@@H](c5ncccc5Cl)N4)cn23)CC1` (racemic) [Compound I-149], the IC50 in series [1] fell in the range of 0.01 to 100 nM. Also, in series [2], the Kp was found to be 8.4, the Kp uu was determined as 1.6, the clearance is 127 mL/min/kg and the bioavailability is 37.9%. For the same compound, the half-life in series [2] was 6.7 h. Moreover, in series [2] (setting [5]), the AUC(0-t) was 3820 ng·h/mL. Besides, in series [2] (setting [6]), the AUC(0-t) was 457 ng·h/mL. In addition, the fraction unbound in series [3] (Mouse brain proteins (Table 9)) was 0.026. The fraction unbound in series [4] was 0.038.

`CN1CCN(c2cccc3nc([C@H]4CCC[C@@H](c5ncccc5Cl)N4)cn23)CC1` (single isomer, unassigned) [Compound I-188]: the 50% inhibitory concentration (IC50) in series [1] is 0.01 to 100 nM. For the same compound, in series [2], the Kp amounted to 5.65, the Kp uu was determined as 1.04, the clearance is 74.3 mL/min/kg and the bioavailability was determined as 36.9%. The half-life in series [2] is 6.87 h. Also, the AUC(0-t) in series [2] (setting [5]) was 4470 ng·h/mL. Further, the AUC(0-t) in series [2] (setting [6]) is 791 ng·h/mL. The fraction unbound in series [3] (Mouse brain proteins (Table 12)) came out at 0.054. In addition, in series [4], the fraction unbound came out at 0.057.

Turning to `CN1CCN(c2cccc3nc([C@@H]4CCC[C@H](c5ncccc5Cl)N4)cn23)CC1` (single isomer, unassigned) [Compound I-189], the IC50 in series [1] fell in the range of 0.01 to 100 nM. For the same compound, in series [2], the Kp was determined as 4.03, the Kp uu was found to be 0.99, the clearance was 68.8 mL/min/kg and the bioavailability was determined as 25.4%. The half-life in series [2] was 8.14 h. Moreover, in series [2] (setting [5]), the AUC(0-t) came out at 2300 ng·h/mL. In addition, the AUC(0-t) in series [2] (setting [6]) is 570 ng·h/mL. In series [4], the fraction unbound stood at 0.061.

As to `Cc1cccnc1[C@@H]1CCC[C@H](c2cn3c(-c4cccnc4)cccc3n2)N1C` [Compound I-6], in series [1], the IC50 was 100 to 1000 nM.

`Cc1cccnc1[C@@H]1CCC[C@H](c2nc3cccc(N4CCN(C)CC4)n3c2Cl)N1C` [Compound I-18]: the IC50 in series [1] was 0.01 to 100 nM. Further, the fraction unbound in series [3] (Mouse brain proteins (Table 9)) came out at 0.002.

For `CCN1CCN(c2cccc3nc([C@H]4CCC[C@@H](c5ncccc5C)N4C)c(Br)n23)CC1` [Compound I-19], in series [1], the IC50 lay within 0.01 to 100 nM. The fraction unbound in series [3] (Mouse brain proteins (Table 9)) turned out to be 0.001.

As for `Cc1cccnc1[C@@H]1CCC[C@H](c2nc3cccc(N4CCN(C(C)C)CC4)n3c2Br)N1C` [Compound I-20], the concentration for half-maximal inhibition (IC50) in series [1] was in the range of 0.01 to 100 nM. For the same compound, in series [3] (Mouse brain proteins (Table 9)), the fraction unbound came out at 0.001.

Regarding `Cc1cccnc1[C@@H]1CCC[C@H](c2nc3cccc(N4CCC(N(C)C)CC4)n3c2Cl)N1C` [Compound I-114], the IC50 in series [1] was 0.01 to 100 nM. Also, in series [3] (Mouse brain proteins (Table 9)), the fraction unbound amounted to 0.003.

As for `Cc1cccnc1[C@@H]1CCC[C@H](c2nc3cccc(N4CCN(C)CC4)n3c2Cl)N1` [Compound I-146], the half-inhibitory concentration (IC50) in series [1] is 0.01 to 100 nM. In series [2], the Kp worked out at 1.82, the Kp uu came out at 0.18, the clearance was 24.3 mL/min/kg and the bioavailability is 70.1%. In addition, the half-life in series [2] was 7.89 h. The AUC(0-t) in series [2] (setting [5]) was 7800 ng·h/mL. For the same compound, the AUC(0-t) in series [2] (setting [6]) came out at 4280 ng·h/mL. The fraction unbound in series [3] (Mouse brain proteins (Table 9)) turned out to be 0.006. Further, the fraction unbound in series [4] was 0.007.

For the compound `Cc1cccnc1[C@@H]1CCC[C@H](c2cn3c(N4CCN(C)CC4)cccc3n2)N1` [Compound I-187], the half-maximal inhibitory concentration (IC50) in series [1] was in the range of 0.01 to 100 nM. Also, in series [3] (Mouse brain proteins (Table 9)), the fraction unbound came out at 0.071.

The values above are taken from patent publication US10759796B2, “CXCR4 inhibitors and uses thereof” (X4 Pharmaceuticals, Inc., priority 2016, dated 2020).
